Source: PMC7236921, “γ-Secretase modulators exhibit selectivity for modulation of APP cleavage but inverse γ-secretase modulators do not” (Alzheimer's Research & Therapy, 2020)

How the values were obtained:
[1] = target: T1, PS2 γ-secretase (PS2 membrane, PSEN1−/− PSEN2+/+) (Homo sapiens, UniProt P49810); experiment: cell-free cleavage of rC100sub, IP-MS of Abeta; type: biochemical; details: inverse modulator (iGSM), 100 μM; substrate rC100sub (APP C100); pH 6.5, 37 °C, 2 h
T1 construct: endogenous complex in CHAPSO-solubilized membrane of HEK 293T cells expressing only PS2; with Nicastrin; Gamma-secretase subunit APH-1A; Gamma-secretase subunit PEN-2

[2] = target: T2, PS1 γ-secretase (PS1 membrane, PSEN1+/+ PSEN2−/−) (Homo sapiens, UniProt P49768); experiment: cell-free cleavage of rC100sub, IP-MS of Abeta; type: biochemical; details: inverse modulator (iGSM), 100 μM; substrate rC100sub (APP C100); pH 6.5, 37 °C, 2 h
T2 construct: endogenous complex in CHAPSO-solubilized membrane of HEK 293T cells expressing only PS1; with Nicastrin; Gamma-secretase subunit APH-1A; Gamma-secretase subunit PEN-2

CC(C)OC(=O)C(C)(C)Oc1ccc(C(=O)c2ccc(Cl)cc2)cc1 [fenofibrate]
percentage change of Aβ38 [1]: iGSMs had an enhanced response when compared to WT
percentage change of Aβ38 [2]: the iGSM treatment resulted in only slight changes in the peptides produced
